Measured values from ChEMBL document CHEMBL1146910, “Selectively guanidinylated derivatives of neamine. Syntheses and inhibition of anthrax lethal factor protease” (Bioorg Med Chem Lett, 2006).

Key:
Conditions in all cases: read-out: Ki app
[1] = target: T1, Lethal factor (Bacillus anthracis, UniProt P15917)
T1 sequence (P15917 whole entry): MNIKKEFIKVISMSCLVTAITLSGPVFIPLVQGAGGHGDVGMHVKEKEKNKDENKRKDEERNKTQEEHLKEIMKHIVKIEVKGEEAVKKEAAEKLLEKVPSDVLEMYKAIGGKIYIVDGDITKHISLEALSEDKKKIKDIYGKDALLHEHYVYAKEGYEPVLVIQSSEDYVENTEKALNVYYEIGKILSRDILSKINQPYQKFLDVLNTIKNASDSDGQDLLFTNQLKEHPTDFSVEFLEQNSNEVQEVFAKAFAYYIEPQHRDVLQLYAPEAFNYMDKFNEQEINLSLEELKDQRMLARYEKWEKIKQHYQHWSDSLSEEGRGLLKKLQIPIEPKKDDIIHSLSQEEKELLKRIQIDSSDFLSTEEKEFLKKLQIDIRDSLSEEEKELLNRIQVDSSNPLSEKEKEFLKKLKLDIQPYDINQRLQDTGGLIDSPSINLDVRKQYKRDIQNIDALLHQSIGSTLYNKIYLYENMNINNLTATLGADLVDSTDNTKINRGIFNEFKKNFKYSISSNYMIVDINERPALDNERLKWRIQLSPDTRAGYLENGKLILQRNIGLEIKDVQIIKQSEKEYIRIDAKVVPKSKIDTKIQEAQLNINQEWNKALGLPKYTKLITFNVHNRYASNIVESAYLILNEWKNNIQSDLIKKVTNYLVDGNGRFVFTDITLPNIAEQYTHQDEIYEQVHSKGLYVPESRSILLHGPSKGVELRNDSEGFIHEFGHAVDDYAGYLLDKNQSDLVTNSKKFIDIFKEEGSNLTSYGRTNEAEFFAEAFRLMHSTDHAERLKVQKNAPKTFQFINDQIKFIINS

[2] = target: T2, Interstitial collagenase (Homo sapiens, UniProt P03956); assay: Activity at MMP1
T2 sequence (P03956 whole entry): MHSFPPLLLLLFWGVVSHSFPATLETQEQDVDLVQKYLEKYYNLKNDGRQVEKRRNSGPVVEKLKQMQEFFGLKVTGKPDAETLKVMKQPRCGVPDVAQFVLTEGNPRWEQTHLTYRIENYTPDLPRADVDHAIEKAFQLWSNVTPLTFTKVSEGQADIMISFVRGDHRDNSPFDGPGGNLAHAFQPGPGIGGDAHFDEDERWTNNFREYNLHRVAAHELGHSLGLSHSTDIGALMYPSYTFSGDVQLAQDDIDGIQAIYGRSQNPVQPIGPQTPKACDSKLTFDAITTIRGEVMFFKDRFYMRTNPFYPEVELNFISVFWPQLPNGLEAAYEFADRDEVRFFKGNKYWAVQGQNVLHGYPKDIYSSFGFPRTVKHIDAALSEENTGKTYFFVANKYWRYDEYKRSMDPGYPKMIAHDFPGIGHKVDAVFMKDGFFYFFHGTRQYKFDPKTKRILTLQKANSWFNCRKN

[3] = target: Matrix metalloproteinase-9 (Homo sapiens, UniProt P14780); assay: Activity at MMP9
Matrix metalloproteinase-9, sequence (P14780 whole entry): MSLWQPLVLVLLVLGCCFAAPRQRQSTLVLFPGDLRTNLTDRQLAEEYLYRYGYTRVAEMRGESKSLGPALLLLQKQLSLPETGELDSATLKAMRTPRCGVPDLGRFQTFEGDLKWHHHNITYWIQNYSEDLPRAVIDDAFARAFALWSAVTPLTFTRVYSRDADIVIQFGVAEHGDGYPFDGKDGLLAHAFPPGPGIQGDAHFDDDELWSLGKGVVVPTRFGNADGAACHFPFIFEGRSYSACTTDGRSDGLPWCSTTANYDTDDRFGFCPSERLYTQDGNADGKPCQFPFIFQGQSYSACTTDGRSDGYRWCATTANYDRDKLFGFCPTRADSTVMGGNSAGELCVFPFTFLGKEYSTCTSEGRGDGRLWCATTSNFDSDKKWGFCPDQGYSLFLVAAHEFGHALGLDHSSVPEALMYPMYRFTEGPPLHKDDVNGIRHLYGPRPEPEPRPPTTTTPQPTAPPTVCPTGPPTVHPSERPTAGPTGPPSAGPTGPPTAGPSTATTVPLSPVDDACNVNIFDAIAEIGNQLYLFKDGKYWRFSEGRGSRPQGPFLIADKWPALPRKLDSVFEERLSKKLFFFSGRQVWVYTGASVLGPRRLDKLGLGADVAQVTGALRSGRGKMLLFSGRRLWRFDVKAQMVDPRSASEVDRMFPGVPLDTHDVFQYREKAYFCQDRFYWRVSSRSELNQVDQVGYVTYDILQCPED

[4] = target: Matrix metalloproteinase-14 (Homo sapiens, UniProt P50281); assay: Activity at MMP14
[5] = target: Stromelysin-1 (Homo sapiens, UniProt P08254); assay: Activity at MMP3
Stromelysin-1, sequence (P08254 whole entry): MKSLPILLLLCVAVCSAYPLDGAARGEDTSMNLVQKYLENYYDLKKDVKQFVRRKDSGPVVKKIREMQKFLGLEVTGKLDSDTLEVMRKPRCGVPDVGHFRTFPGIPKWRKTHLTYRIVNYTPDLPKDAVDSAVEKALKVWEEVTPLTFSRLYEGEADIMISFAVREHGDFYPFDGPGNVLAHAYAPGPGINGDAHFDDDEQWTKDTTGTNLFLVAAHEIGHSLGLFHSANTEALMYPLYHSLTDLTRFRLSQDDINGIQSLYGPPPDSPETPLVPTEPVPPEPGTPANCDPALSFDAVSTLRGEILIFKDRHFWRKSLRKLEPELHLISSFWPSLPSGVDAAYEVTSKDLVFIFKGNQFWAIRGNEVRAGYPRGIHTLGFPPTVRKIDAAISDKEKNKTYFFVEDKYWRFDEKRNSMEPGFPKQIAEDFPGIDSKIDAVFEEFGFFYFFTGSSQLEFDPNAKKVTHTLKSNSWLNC

[6] = target: Macrophage metalloelastase (Homo sapiens, UniProt P39900); assay: Activity at MMP12
Macrophage metalloelastase, sequence (P39900 whole entry): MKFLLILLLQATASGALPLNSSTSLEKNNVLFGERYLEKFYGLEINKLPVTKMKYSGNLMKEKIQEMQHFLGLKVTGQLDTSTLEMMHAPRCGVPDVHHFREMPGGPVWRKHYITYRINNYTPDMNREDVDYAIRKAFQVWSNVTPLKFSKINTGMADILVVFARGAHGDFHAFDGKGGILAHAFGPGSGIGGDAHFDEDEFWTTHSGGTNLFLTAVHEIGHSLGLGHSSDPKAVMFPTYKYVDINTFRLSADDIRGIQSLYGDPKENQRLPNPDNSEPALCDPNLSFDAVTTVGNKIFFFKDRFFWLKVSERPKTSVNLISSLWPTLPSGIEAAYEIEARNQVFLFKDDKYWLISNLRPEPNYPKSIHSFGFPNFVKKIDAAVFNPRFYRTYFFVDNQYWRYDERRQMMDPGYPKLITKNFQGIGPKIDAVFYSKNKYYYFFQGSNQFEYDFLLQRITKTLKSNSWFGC

Structure (SMILES)	Ki [1]	Ki [2]	Ki [3]	Ki [4]	Ki [5]	Ki [6]
NC(N)=NC[C@H]1O[C@H](O[C@H]2[C@H](O)[C@@H](O)[C@H](N=C(N)N)C[C@@H]2N)[C@H](N)[C@@H](O)[C@@H]1O	10.2 µM	–	–	–	–	–
NC(N)=NC[C@H]1O[C@H](O[C@H]2[C@H](O)[C@@H](O)[C@H](N)C[C@@H]2N)[C@H](N=C(N)N)[C@@H](O)[C@@H]1O	7.7 µM	–	–	–	–	–
CO[C@@H]1[C@@H](OC)[C@H](N=C(N)N)C[C@H](N=C(N)N)[C@H]1O[C@H]1O[C@H](CN=C(N)N)[C@@H](OC)[C@H](OC)[C@H]1N=C(N)N	1.5 µM	> 300 µM	> 300 µM	> 300 µM	> 300 µM	> 300 µM
NC[C@H]1O[C@H](O[C@H]2[C@H](O)[C@@H](O)[C@H](N=C(N)N)C[C@@H]2N=C(N)N)[C@H](N=C(N)N)[C@@H](O)[C@@H]1O	0.5 µM	> 300 µM	> 300 µM	> 300 µM	> 300 µM	> 300 µM
NC[C@H]1O[C@H](O[C@H]2[C@H](O)[C@@H](O)[C@H](N=C(N)N)C[C@@H]2N)[C@H](N=C(N)N)[C@@H](O)[C@@H]1O	5.3 µM	–	–	–	–	–
NC(N)=NC[C@H]1O[C@H](O[C@H]2[C@H](O)[C@@H](O)[C@H](N)C[C@@H]2N)[C@H](N)[C@@H](O)[C@@H]1O	24.3 µM	–	–	–	–	–
NC[C@H]1O[C@H](O[C@H]2[C@H](O)[C@@H](O)[C@H](N)C[C@@H]2N=C(N)N)[C@H](N=C(N)N)[C@@H](O)[C@@H]1O	0.7 µM	> 300 µM	> 300 µM	> 300 µM	> 300 µM	> 300 µM
NC(N)=NC[C@H]1O[C@H](O[C@H]2[C@H](O)[C@@H](O)[C@H](N)C[C@@H]2N=C(N)N)[C@H](N=C(N)N)[C@@H](O)[C@@H]1O	9.2 µM	–	–	–	–	–
NC(N)=NC[C@H]1O[C@H](O[C@H]2[C@H](O)[C@@H](O)[C@H](N=C(N)N)C[C@@H]2N=C(N)N)[C@H](N)[C@@H](O)[C@@H]1O	8.7 µM	–	–	–	–	–
NC[C@H]1O[C@H](O[C@H]2[C@H](O)[C@@H](O)[C@H](N=C(N)N)C[C@@H]2N=C(N)N)[C@H](N)[C@@H](O)[C@@H]1O	5.6 µM	–	–	–	–	–
NC(N)=NC[C@H]1O[C@H](O[C@H]2[C@H](O)[C@@H](O)[C@H](N=C(N)N)C[C@@H]2N)[C@H](N=C(N)N)[C@@H](O)[C@@H]1O	3.1 µM	–	–	–	–	–
N=C(N)NC[C@H]1O[C@H](O[C@H]2[C@H](O)[C@@H](O)[C@H](NC(=N)N)C[C@@H]2NC(=N)N)[C@H](NC(=N)N)[C@@H](O)[C@@H]1O	0.7 µM	> 300 µM	> 300 µM	> 300 µM	> 300 µM	> 300 µM
NC[C@H]1O[C@H](O[C@H]2[C@H](O)[C@@H](O)[C@H](N)C[C@@H]2N=C(N)N)[C@H](N)[C@@H](O)[C@@H]1O	5.2 µM	–	–	–	–	–
NC[C@H]1O[C@H](O[C@H]2[C@H](O)[C@@H](O)[C@H](N=C(N)N)C[C@@H]2N)[C@H](N)[C@@H](O)[C@@H]1O	5 µM	–	–	–	–	–
NC(N)=NC[C@H]1O[C@H](O[C@H]2[C@H](O)[C@@H](O)[C@H](N)C[C@@H]2N=C(N)N)[C@H](N)[C@@H](O)[C@@H]1O	8.8 µM	–	–	–	–	–
NC[C@H]1O[C@H](O[C@H]2[C@H](O)[C@@H](O)[C@H](N)C[C@@H]2N)[C@H](N=C(N)N)[C@@H](O)[C@@H]1O	10.9 µM	–	–	–	–	–
